Paper PMC10987949, “Inhibition of HIV-1 release by ADAM metalloproteinase inhibitors” (Frontiers in Microbiology, 2024)

Columns and labels:
CD62L shedding [1] = test: Soluble CD62L ELISA, anti-CD3/PHA stimulated PBMC or CD4 T cells; assay type: cell-based, human; details: ELISA
Method: PBMC from de-identified healthy donors were obtained with informed consent from the Department of Transfusion Medicine, National Institutes of Health under Biological reagent Registry RD-14-IX-12 approved by NIH biological safety board. […] IL-2 was added at a final concentration of 20 U/mL. CD3 antibody okt3 was used at ~0.2 μg/mL final concentration. […] Supernatants were collected and assessed using either the CD62L or TNF-α Duo Set ELISA kit according to manufacturer’s instructions (R&D Systems, Inc.). The viability of cells treated with compounds was assessed by acridine orange / propidiom iodide (AO/PI Logosbio catalog F23001) staining using Luna-FL cell counter following the manufacture’s instruction.^2

recombinant ADAM17 = target: T1, recombinant ADAM17 (Homo sapiens, UniProt P78536); test: Kinetic cleavage of fluorogenic TNF-α peptide ES003 by recombinant ADAM17; assay type: biochemical; details: 2 μM compound
T1 construct: purchased R&D systems, Inc
Source text: (§1) A fluorescence based enzymatic assay was used to measure the cleavage of fluorogenic TNF-α and L-selectin (CD62L) peptides by either recombinant ADAMs or PBMC from healthy donors. The fluorogenic substrate, synthesized by Biomatik^3, was a Dabcyl (4-(4-dimethylaminophenylazo)benzoyl)- and Edans (5-[(2-aminoethyl)amino]naphthalene-1-sulfonic acid)- conjugated 12 amino acid peptide: Dabcyl-[…]-Edans that corresponds to the extracellular membrane proximal region of CD62L. […] The cleavage was measured in a kinetic assay every 3 min for 4 h in black 96-well plates using a Synergy_h1 fluorescent plate reader (BioTek) with 340 nm excitation and 490 nm emission wavelengths. […] PBMC were stimulated with anti-CD3 antibody for 2–4 days as described above.
(§2) 96-well plate with data recorded every 3 minutes for 4 hours using a Synergy_h1 fluorescent plate reader. Each enzymatic reaction contained 50 -200 ng
(§3) Figure 2B and 2C bar diagrams are generated using the
(§4) data points at 4 hour time point of the enzymatic cleavages.

recombinant ADAM10 [2] = target: T2, recombinant ADAM10 (Homo sapiens, UniProt O14672); test: Kinetic cleavage of fluorogenic TNF-α peptide ES003 by recombinant ADAM10; assay type: biochemical; details: 2 μM compound
T2 construct: purchased R&D systems, Inc
T2 sequence (O14672 214-748): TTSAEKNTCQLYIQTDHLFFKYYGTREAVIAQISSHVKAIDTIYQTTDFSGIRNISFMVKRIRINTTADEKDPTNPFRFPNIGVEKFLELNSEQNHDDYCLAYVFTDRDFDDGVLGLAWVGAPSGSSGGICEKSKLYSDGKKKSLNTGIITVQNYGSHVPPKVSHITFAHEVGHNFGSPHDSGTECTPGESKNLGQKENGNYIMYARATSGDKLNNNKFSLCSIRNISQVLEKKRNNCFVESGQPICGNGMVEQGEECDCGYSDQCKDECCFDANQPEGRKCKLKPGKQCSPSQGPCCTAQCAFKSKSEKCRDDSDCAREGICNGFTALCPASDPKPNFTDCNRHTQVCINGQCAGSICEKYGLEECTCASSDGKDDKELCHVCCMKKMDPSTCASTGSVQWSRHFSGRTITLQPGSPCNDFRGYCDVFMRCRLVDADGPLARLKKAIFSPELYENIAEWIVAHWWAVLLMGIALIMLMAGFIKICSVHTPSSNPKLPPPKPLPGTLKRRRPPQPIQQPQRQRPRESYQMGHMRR
Source text: as §1, §2, §3, §4

recombinant ADAM10 [3] = target: T2, recombinant ADAM10; test: Cleavage of fluorogenic CD62L peptide by recombinant ADAM10; assay type: biochemical; details: 2 μM compound
Source text: A fluorescence based enzymatic assay was used to measure the cleavage of fluorogenic TNF-α and L-selectin (CD62L) peptides by either recombinant ADAMs or PBMC from healthy donors. The fluorogenic substrate, synthesized by Biomatik^3, was a Dabcyl (4-(4-dimethylaminophenylazo)benzoyl)- and Edans (5-[(2-aminoethyl)amino]naphthalene-1-sulfonic acid)- conjugated 12 amino acid peptide: Dabcyl-[…]-Edans that corresponds to the extracellular membrane proximal region of CD62L. The fluorescence of the Edans group is quenched by the Dabcyl group in the intact substrate and the cleavage of the CD62L substrate peptide results in a fluorescence emission at 490 nm. The cleavage of fluorogenic TNF-α peptide (ES003, R &D systems, Inc) was detected at emission of 405 nm. The cleavage was measured in a kinetic assay every 3 min for 4 h in black 96-well plates using a Synergy_h1 fluorescent plate reader (BioTek) with 340 nm excitation and 490 nm emission wavelengths. For cleavage using recombinant ADAMs, each enzymatic reaction contained 50–200 ng of recombinant ADAM17 or 10 (R&D systems, Inc) mixed with 5–10 μM fluorogenic TNFα peptide ES003 (R&D systems, Inc) or CD62L peptide with or without indicated inhibitors in 100 μL assay buffer of 25 mM Tris at pH 9.0, 2.5 μM ZnCl2, and 0.005% Brij-35 (w/v). For cell-based cleavage of the fluorescent CD62L-peptide substrate, 300,000 PBMC at 2×10^6/ml density were mixed with 10 μM fluorescent CD62L-peptide and various inhibitors in a black 96-well plate in 150 μL culture media (RPMI 1640, 10% FBS, 1% penicillin streptomycin). PBMC were stimulated with anti-CD3 antibody for 2–4 days as described above.
Supplemental Figure 3. Inhibition of ADAM10 enzymatic activity by 14mb. A) chemical structure of 3-Cl-phenylpyrrolidine tartrate diamide analogs 14m and 15. B)Inhibition of recombinant ADAM10 cleavage of a fluorogenic CD62L peptide substrate in the presence of titrating concentrations of 14mb. The concentration-dependent enzymatic activities are fitted with non-linear regression of normalized inhibition response model. C). Inhibition of ADAM10 enzymatic cleavage of fluorogenic CD62L peptide by various […]

HIV-1BAL = HIV-1BAL infection of CD8-depleted PBMC, FACS (intracellular p24, CD4, CD62L); assay type: cell-based
Source text: The use of healthy human peripheral blood mononuclear cells (PBMC) is approved by the Department of Transfusion Medicine at the Clinical Center of National Institutes of Health. The use of PBMC from HIV-1 infected individuals for the study was approved under protocol #02-I-0202 by the Institutional Review Board (IRB) of National Institutes of Health with written informed consent from all donors. Peripheral blood mononuclear cells (PBMCs) from anonymous healthy donors were isolated by Ficoll-Paque gradient, and cultured in RPMI 1640 supplemented with 10% FBS, 1%Penicillin/streptomycin, 1% HEPES buffer and 20 U/mL IL-2 (culture media); and stimulated with 0.2 μg/mL anti-CD3 antibody (okt3) for 2 days. CD8^+ T cells were depleted prior to infection using the Stemcell CD8 positive selection kit according to manufacturer’s instructions. CD8-depleted PBMCs were plated at 2×10^6 cells/ml in 48-well plates in 1 mL culture media with various inhibitors for 60 min prior to the addition of ~80 TCID50 HIV-1BAL or HIV-1LAI. Inhibitors were replenished during media change every 3 days. The infections were proceeded with or without inhibitors for 6 days or otherwise specified number of days and then analyzed by FACS staining using fluorescent labeled CD4-BV510, CD62L-APC and CD3-PEC7 antibodies (BD Biosciences). Cells were then washed and permeabilized with CytoFix/CytoPerm (BD Biosciences) solution before intracellular staining for HIV p24 antigen using FITC conjugated anti-p24 antibody clone KC57 (Beckman Coulter, catalog 6604665). All assays were performed with cell viabilities >80%. Replication competent HIV-1 viruses were obtained from the NIH AIDS Reagent Program^4, and expanded by infecting activated CD8-depleted PBMCs, and TCID50 was determined by p24 ELISA.

[4] = target: T3, recombinant HIV-1 protease (Human immunodeficiency virus type 1 group M subtype B, UniProt P04585); test: HIV-1 protease fluorogenic substrate cleavage; assay type: biochemical; details: 100nM saquinavir or nelfinavir; MMP inhibitors up to 10uM
T3 construct: recombinant HIV-1 protease; purchased Sigma-Aldrich SRP2151
Method: HIV-1 protease enzymatic activity was assayed in black 96-well plates at room temperature using a Synergy_h1 fluorescent plate reader with 340 nm excitation and 490 nm emission wavelengths (BioTek). Each enzymatic reaction consisted of a mixture of 100 ng of recombinant HIV-1 protease (Sigma-Aldrich catalog SRP2151), 5 μM concentration of a fluorogenic substrate Arg-Glu(EDANS)-[…]DABCYL)-Arg (Sigma-aldrich catalog H6660), and various concentrations of inhibitor compounds in 100 μL of assay buffer (0.15 M sodium chloride, 1.0 mM EDTA, 1.0 mM DTT, 0.1 M sodium acetate, pH 5.0). The fluorescence of the cleavage reaction was continuously read at every 30 s for a total of 40 min.

CD62L shedding [5] = test: Soluble CD62L ELISA, unstimulated PBMC; assay type: cell-based, human; details: Homo sapiens, PBMC; 10 μM compound; non-stimulated cells; ELISA; read-out: Shedding inhibition Non-stim.
Method: PBMC from de-identified healthy donors were obtained with informed consent from the Department of Transfusion Medicine, National Institutes of Health under Biological reagent Registry RD-14-IX-12 approved by NIH biological safety board. CD8-depleted PBMCs, either stimulated or non-stimulated with 10 μg/mL phytohaemagglutinin (PHA) or anti-CD3 antibody (with or without conjugated beads), were plated at 2×10^6 cells/ml in 48 well plates in RPMI 1640 + 10%FBS (R10) to a final volume of 1 mL in each well. IL-2 was added at a final concentration of 20 U/mL. CD3 antibody okt3 was used at ~0.2 μg/mL final concentration. […] Supernatants were collected and assessed using either the CD62L or TNF-α Duo Set ELISA kit according to manufacturer's instructions (R&D Systems, Inc.). The viability of cells treated with compounds was assessed by acridine orange / propidiom iodide (AO/PI Logosbio catalog F23001) staining using Luna-FL cell counter following the manufacture's instruction.^2 […] Supplemental Figure 1. CD62L shedding from unstimulated PBMC. A) Soluble CD62L in the supernatant of unstimulated PBMC was measured By ELISA (R&D systems, Inc) after 24 hour treatment in the presence of 10 μM of […]), aminopeptidase (AP) protease inhibitors, respectively, or their untreated controls. Statistics were calculated using unpaired parametric student t-test between individual treatment and DMSO control. […] B) Viability of PBMC treated with 10-500 μM of MMP inhibitors for 24hours. […] Untreated DMSO AEBSF 3,4-Dichloroisocouman Granzyme B Inhibitor II Granzyme B Inhibitor IV Aprotinin […] 3 4 CD62L shedding from unstimulated PBMC Soluble CD62L (ng/ml) Inhibitor Class […] GI254023X 10 GI254023X 100 […] GI254023X 1000 GW280264X 10 GW280264X 100 […] GW280264X 1000 Marimastat 10 Marimastat 100 Marimastat 250 […]

HIV-1 = test: Ex vivo HIV-1 release from CD4 T cells of HIV-1 infected individuals; assay type: cell-based; details: 50 μM; CD4 T cells from six HIV-1 infected individuals; day 2 and 4
Method: PBMCs were collected from the study subjects in accordance with a clinical protocol approved by the Institutional Review Board of the National Institute of Allergy and Infectious Diseases, National Institutes of Health under protocol #02-I-0202. CD4^+ T cells were isolated from the PBMCs using a human CD4 T cell separation system (StemCell Technologies, Catalog 19052) and were cultured with medium alone or with plate-bound anti-CD3 and soluble anti-CD28 antibody in the absence or presence of 50 μM of indicated compounds for 48 h. The copy number of cell-free viron-associated HIV RNA in the culture supernatants was quantified using the Cobas Ampliprep/Cobas Taqman HIV-1 Test, Version 2.0 (Roche Diagnostics) with droplet digital PCR (ddPCR, BIO-RAD) on day 2 and 4 of stimulation.

T1 sequence (P78536 215-824): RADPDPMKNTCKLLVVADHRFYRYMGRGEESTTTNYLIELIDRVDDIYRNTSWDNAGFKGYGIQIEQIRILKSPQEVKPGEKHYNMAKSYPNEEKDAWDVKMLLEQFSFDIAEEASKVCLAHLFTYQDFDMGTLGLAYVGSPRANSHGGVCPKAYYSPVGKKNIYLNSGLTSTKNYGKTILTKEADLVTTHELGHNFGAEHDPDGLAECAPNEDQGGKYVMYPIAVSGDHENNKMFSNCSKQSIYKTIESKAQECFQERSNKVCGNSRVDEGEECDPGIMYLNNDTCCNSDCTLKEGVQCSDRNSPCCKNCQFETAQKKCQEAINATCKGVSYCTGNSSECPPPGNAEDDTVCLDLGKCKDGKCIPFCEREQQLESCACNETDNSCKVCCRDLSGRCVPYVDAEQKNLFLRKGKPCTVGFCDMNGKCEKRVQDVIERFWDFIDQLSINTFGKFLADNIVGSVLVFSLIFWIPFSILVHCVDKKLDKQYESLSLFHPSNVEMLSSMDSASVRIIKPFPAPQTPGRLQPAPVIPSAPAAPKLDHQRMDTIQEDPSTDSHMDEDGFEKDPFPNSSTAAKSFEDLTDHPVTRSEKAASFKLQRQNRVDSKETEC

| SMILES | Shedding inhibition Stimulated (CD62L shedding [1]; 10 μM compound, stimulated cells) | inhibition of ADAM17 cleavage of ES003 (recombinant ADAM17) | inhibition of ADAM10 cleavage of ES003 (recombinant ADAM10 [2]) | inhibition of ADAM10 cleavage of CD62L substrate peptide (recombinant ADAM10 [3]) | accumulation of infected CD4−/CD62L− T cells (loss of CD62L) (HIV-1BAL; HIV-1BAL infected cells) | effect on HIV-1BAL infection (intracellular p24) (HIV-1BAL; day 7 post infection, compounds at 100 μM, GI254023X at 250 μM) | effect on HIV protease cleavage of fluorogenic substrate [4] | inhibition at 10 µM (CD62L shedding [1]; Homo sapiens, 10 μM compound, stimulated cells) | effect on CD62L shedding / soluble CD62L (CD62L shedding [1]; stimulated PBMC or CD4 T cells) | inhibition at 10 µM (CD62L shedding [5]) | effect on viral release (virion-associated HIV RNA) (HIV-1) |
| --- | --- | --- | --- | --- | --- | --- | --- | --- | --- | --- | --- |
| O=P([O-])([O-])C(Cl)(Cl)P(=O)(O)O.[Na+].[Na+] [DMDP, Dichloromethylenediphosphonic acid disodium salt] | − (0% inhibition) | inhibited neither ADAM10 nor 17 enzymatic activities | inhibited neither ADAM10 nor 17 enzymatic activities | not | failed to prevent the loss of CD62L | failed to inhibit HIV-1BAL infections | none of the MMP inhibitors, including BB-94, prinomastat, GM6001 and DMDP, inhibited the activity of HIV protease | – | – | – | – |
| CNC(=O)[C@H](Cc1c[nH]c2ccccc12)NC(=O)[C@@H](CC(=O)NO)CC(C)C [GM6001] | – | – | – | – | – | – | none of the MMP inhibitors, including BB-94, prinomastat, GM6001 and DMDP, inhibited the activity of HIV protease | 20 to 50% | suppressed CD62L shedding | 20 to 50% | inhibited viral release in a portion of the samples |
